Assay type in all cases: functional
One test relates to Pseudomonas aeruginosa. Description: Antibacterial activity against Pseudomonas aeruginosa assessed as growth inhibition after 24 hr by NCCLS broth microdilution method.
In another test the test system is Bacillus subtilis. Description: Antibacterial activity against Bacillus subtilis assessed as growth inhibition after 24 hr by NCCLS broth microdilution method.
Another test deals with Candida albicans. Description: Antifungal activity against Candida albicans assessed as growth inhibition after 24 hr by NCCLS broth microdilution method.
The next test deals with Escherichia coli. Description: Antibacterial activity against Escherichia coli assessed as growth inhibition after 24 hr by NCCLS broth microdilution method.
The next test relates to Staphylococcus aureus. Description: Antibacterial activity against Staphylococcus aureus assessed as growth inhibition after 24 hr by NCCLS broth microdilution method.
The next test has as its system Aspergillus niger. Description: Antifungal activity against Aspergillus niger assessed as growth inhibition after 24 hr by NCCLS broth microdilution method.
Another test relates to Bacillus pumilus. Description: Antibacterial activity against Bacillus pumilus assessed as growth inhibition after 24 hr by NCCLS broth microdilution method.
Another test deals with Aspergillus flavus. Description: Antifungal activity against Aspergillus flavus assessed as growth inhibition after 24 hr by NCCLS broth microdilution method.
A further test has as its system Candida tropicalis. Description: Antifungal activity against Candida tropicalis assessed as growth inhibition after 24 hr by NCCLS broth microdilution method.

In brackets after ≈: the same amount, converted by molar mass.

For `COc1ccc(-c2nn(-c3ccccc3)cc2C2CC(c3ccccc3)=NN2C(=O)c2ccncc2)cc1` (racemic), the MIC with Pseudomonas aeruginosa amounted to 12.5 mg/L (≈ 25 µM); with Bacillus subtilis, 6.25 mg/L (≈ 12.5 µM); with Candida albicans, 12.5 mg/L (≈ 25 µM); in the test on Escherichia coli, 6.25 mg/L (≈ 12.5 µM); in the test with Staphylococcus aureus it was 6.25 mg/L (≈ 12.5 µM); with Aspergillus niger, 50 mg/L (≈ 100 µM). In addition, the MIC in the test with Bacillus pumilus amounted to 6.25 mg/L (≈ 12.5 µM); with Aspergillus flavus, 50 mg/L (≈ 100 µM); in the test on Candida tropicalis, 12.5 mg/L (≈ 25 µM).
Turning to `COc1ccccc1-c1nn(-c2ccccc2)cc1C1CC(c2ccccc2)=NN1C(=O)c1ccncc1` (racemic), the minimal inhibitory concentration (MIC) was determined as 6.25 mg/L (≈ 12.5 µM) with Pseudomonas aeruginosa; 6.25 mg/L (≈ 12.5 µM) in the test with Bacillus subtilis; 6.25 mg/L (≈ 12.5 µM) with Candida albicans; 6.25 mg/L (≈ 12.5 µM) in the test on Escherichia coli; 6.25 mg/L (≈ 12.5 µM) in the test on Staphylococcus aureus; 50 mg/L (≈ 100 µM) with Aspergillus niger. In addition, the MIC was found to be 6.25 mg/L (≈ 12.5 µM) in the test on Bacillus pumilus, 50 mg/L (≈ 100 µM) in the test with Aspergillus flavus and 6.25 mg/L (≈ 12.5 µM) with Candida tropicalis.
`Cc1ccc(-c2nn(-c3ccccc3)cc2C2CC(c3ccccc3)=NN2C(=O)c2ccncc2)cc1` (racemic): the MIC in the test on Pseudomonas aeruginosa was 25 mg/L (≈ 51.7 µM); in the test with Bacillus subtilis, 12.5 mg/L (≈ 25.8 µM); in the test on Candida albicans, 25 mg/L (≈ 51.7 µM); in the test on Escherichia coli, 12.5 mg/L (≈ 25.8 µM); with Staphylococcus aureus, 6.25 mg/L (≈ 12.9 µM); with Aspergillus niger it was 100 mg/L (≈ 207 µM). Further, the MIC in the test with Bacillus pumilus amounted to 12.5 mg/L (≈ 25.8 µM); in the test with Aspergillus flavus, 100 mg/L (≈ 207 µM); in the test with Candida tropicalis, 50 mg/L (≈ 103 µM).
As for `O=C(c1ccncc1)N1N=C(c2ccccc2)CC1c1cn(-c2ccccc2)nc1-c1ccc(F)cc1` (racemic), the MIC was 12.5 mg/L (≈ 25.6 µM) with Pseudomonas aeruginosa; 12.5 mg/L (≈ 25.6 µM) with Bacillus subtilis; 50 mg/L (≈ 103 µM) in the test with Candida albicans; 12.5 mg/L (≈ 25.6 µM) with Escherichia coli; 6.25 mg/L (≈ 12.8 µM) with Staphylococcus aureus; 200 mg/L (≈ 410 µM) in the test with Aspergillus niger. In addition, the MIC in the test on Bacillus pumilus is 25 mg/L (≈ 51.3 µM); in the test with Aspergillus flavus, 200 mg/L (≈ 410 µM); in the test on Candida tropicalis, 50 mg/L (≈ 103 µM).
With `O=C(c1ccncc1)N1N=C(c2ccccc2)CC1c1cn(-c2ccccc2)nc1-c1ccc(Cl)cc1` (racemic), the MIC is 25 mg/L (≈ 49.6 µM) in the test on Pseudomonas aeruginosa; 25 mg/L (≈ 49.6 µM) in the test on Bacillus subtilis; 100 mg/L (≈ 198 µM) in the test with Candida albicans; 25 mg/L (≈ 49.6 µM) in the test with Escherichia coli; 12.5 mg/L (≈ 24.8 µM) with Staphylococcus aureus; greater than 200 mg/L in the test with Aspergillus niger. The MIC with Bacillus pumilus came out at 25 mg/L (≈ 49.6 µM); with Aspergillus flavus it was 200 mg/L (≈ 397 µM); with Candida tropicalis, 100 mg/L (≈ 198 µM).
Regarding `O=C(c1ccncc1)N1N=C(c2ccccc2)CC1c1cn(-c2ccccc2)nc1-c1ccc(Br)cc1` (racemic), the MIC in the test with Pseudomonas aeruginosa was 50 mg/L (≈ 91.2 µM); in the test on Bacillus subtilis, 25 mg/L (≈ 45.6 µM); in the test with Candida albicans it was 50 mg/L (≈ 91.2 µM); in the test on Escherichia coli, 50 mg/L (≈ 91.2 µM); with Staphylococcus aureus it was 12.5 mg/L (≈ 22.8 µM); in the test with Aspergillus niger it was greater than 200 mg/L. Moreover, the values for the MIC with Bacillus pumilus, in the test on Aspergillus flavus and in the test with Candida tropicalis were 25 mg/L (≈ 45.6 µM), 200 mg/L (≈ 365 µM) and 100 mg/L (≈ 182 µM), respectively.
With `O=C(c1ccncc1)N1N=C(c2ccccc2)CC1c1cn(-c2ccccc2)nc1-c1ccccc1` (racemic), the MIC turned out to be 50 mg/L (≈ 106 µM) with Pseudomonas aeruginosa; 50 mg/L (≈ 106 µM) with Bacillus subtilis; 200 mg/L (≈ 426 µM) in the test with Candida albicans; 50 mg/L (≈ 106 µM) in the test on Escherichia coli; 25 mg/L (≈ 53.2 µM) in the test on Staphylococcus aureus; 100 mg/L (≈ 213 µM) in the test on Aspergillus niger. For the same compound, the MIC in the test with Bacillus pumilus is 50 mg/L (≈ 106 µM); in the test with Aspergillus flavus it was greater than 200 mg/L; in the test with Candida tropicalis it was 200 mg/L (≈ 426 µM).
Take `O=C(O)c1cn(C2CC2)c2cc(N3CCNCC3)c(F)cc2c1=O` [CIPROFLOXACIN]: the MIC in the test with Pseudomonas aeruginosa, in the test with Bacillus subtilis, with Escherichia coli, in the test on Staphylococcus aureus and in the test with Bacillus pumilus was 3.12 mg/L (≈ 9.43 µM) throughout.
`OC(Cn1cncn1)(Cn1cncn1)c1ccc(F)cc1F` [FLUCONAZOLE]: the MIC in the test with Candida albicans worked out at 3.12 mg/L (≈ 10.2 µM); in the test on Aspergillus niger, 12.5 mg/L (≈ 40.8 µM); in the test on Aspergillus flavus, 12.5 mg/L (≈ 40.8 µM); in the test with Candida tropicalis, 6.25 mg/L (≈ 20.4 µM).

Values taken from ChEMBL document CHEMBL3045725, “Synthesis and antimicrobial activity of some (3-phenyl-5-(1-phenyl-3-aryl-1H-pyrazol-4-yl)-4,5-dihydro-1H-pyrazol-1-yl)(pyridin-4-yl)methanones: new derivatives of 1,3,5-trisubstituted pyrazolines” (2013).
